One data set has as its system Hepatocyte. Put plainly: Prodrug activation in human primary hepatocytes assessed as assessed as Tmax of beta-D-2'-deoxy-2'-alpha-fluoro-2'-beta-C-methylguanosine triphosphate level at 100 uM. It is filed as cell-based, Liver.
A short description of data set [1]: Half life in rat plasma. The format is ADME, cell-free.
Data set [2] in a line: Half life in human liver S9 fraction. It is filed as ADME, subcellular.
Data set [3] concerns Hepatitis C virus. Description: Antiviral activity against Hepatitis C virus genotype 1b replicon infected in Lunet cells by luciferase reporter gene assay. It is filed as functional, Hepacivirus hominis. Background: In antiviral work, replicon cells carry a viral genome segment that copies itself.
Data set [4] relates to Hepatitis C virus. Put plainly: Antiviral activity against Hepatitis C virus genotype 1b replicon infected in clone A cells assessed as inhibition of viral replication by RT-PCR analysis. The format is functional, Hepacivirus hominis.
Data set [5] can be described thus: Cytotoxicity against human HuH7 cells. The conditions noted are these: Huh-7 cells. It is filed as cell-based.
Data set [6] is described as follows: Half life in simulated intestinal fluid. The format is physicochemical.
Data set [7] deals with Huh-7. Description: Prodrug activation in human HuH7 cells infected with HCV genotype 1b assessed as Tmax of beta-D-2'-deoxy-2'-alpha-fluoro-2'-beta-C-methylguanosine triphosphate level at 100 uM. It is filed as cell-based. Particulars: huh-7, 100 µM.
Data set [8] in a line: Half life in human plasma. The format is ADME, cell-free.
Data set [9] deals with Hepatitis C virus. Description: Antiviral activity against Hepatitis C virus infected in po dosed human assessed as log reduction in viral load. It is filed as functional, Hepacivirus hominis.
A short description of data set [10]: Half life in simulated gastric fluid. The format is physicochemical.
For data set [11], the system named is Rattus norvegicus. Description: Tlast in rat at 40 mg/kg, po administered QD measured after 7 days. It is filed as ADME, organism-based. Details: dose 40 mg/kg, route oral. The conditions noted are these: in vivo, 168 h.
Data set [12] concerns CCRF-CEM. Put plainly: Mitochondrial toxicity against human CEM cells assessed as decrease in mitochondrial COX2 DNA up to 100 uM after 14 days by RT-PCR analysis. The format is cell-based. Particulars: 336 h.
The test system of data set [13] is Rattus norvegicus. Put plainly: Prodrug activation in rat liver assessed as free nucleoside level at 40 mg/kg, po administered QD as repeated dose measured at 4 hrs post-dosing on day 8. The format is organism-based. Details: dose 40 mg/kg, route oral. The conditions noted are these: in vivo.
Data set [14] relates to HepG2. Description: Mitochondrial toxicity against human HepG2 cells assessed as decrease in mitochondrial COX2 DNA up to 100 uM after 14 days by RT-PCR analysis. It is filed as cell-based. The conditions noted are these: hepg2, 336 h.
Data set [15] is described as follows: Tmax in rat at 40 mg/kg, po administered QD measured after 1 day. The format is ADME, organism-based. Also noted: dose 40 mg/kg, route oral. The conditions noted are these: in vivo.
The nature of data set [16]: Cmax in rat at 40 mg/kg, po administered QD measured after 7 days. It is filed as ADME, organism-based. Also noted: dose 40 mg/kg, route oral. Particulars: in vivo.
Data set [17] can be described thus: Half life in rat at 40 mg/kg, po administered QD measured after 7 days. The format is ADME, organism-based. Also noted: dose 40 mg/kg, route oral. The conditions noted are these: in vivo.
In data set [18] the test system is Rattus norvegicus. Description: Tlast in rat at 40 mg/kg, po administered QD measured after 1 day. The format is ADME, organism-based. Details: dose 40 mg/kg, route oral. Particulars: in vivo, 24 h.
The subject of data set [19] is HepG2. Description: Cytotoxicity against human HepG2 cells up to 100 uM after 8 days by MTT assay. It is filed as cell-based. The conditions noted are these: hepg2, 192 h. (In general: Formazan colour is commonly taken as a measure of viable cells.)
Data set [20] can be described thus: AUClast in rat at 40 mg/kg, po administered QD measured after 1 day. It is filed as ADME, organism-based. Details: dose 40 mg/kg, route oral. Particulars: plasma.
A short description of data set [21]: Tmax in rat at 40 mg/kg, po administered QD measured after 7 days. It is filed as ADME, organism-based. Also noted: dose 40 mg/kg, route oral. The conditions noted are these: in vivo.
The subject of data set [22] is Rattus norvegicus. Description: Prodrug activation in rat liver assessed as total nucleotide level at 40 mg/kg, po administered QD as repeated dose measured at 4 hrs post-dosing on day 8. The format is organism-based. Also noted: dose 40 mg/kg, route oral. The conditions noted are these: in vivo.
The test system of data set [23] is Huh-7. Description: Cytotoxicity against human HuH7 cells up to 100 uM after 8 days by MTT assay. It is filed as cell-based. The conditions noted are these: huh-7, 192 h.
Data set [24] is described as follows: Half life in rat at 40 mg/kg, po administered QD measured after 1 day. It is filed as ADME, organism-based. Details: dose 40 mg/kg, route oral. Particulars: in vivo.
Data set [25] has as its system Hepatitis C virus. Put plainly: Ratio of PSI-352938 EC90 to compound EC90 for Hepatitis C virus genotype 1b infected in clone A cells. It is filed as functional, Hepacivirus hominis.
Another data set concerns BXPC-3. Put plainly: Cytotoxicity against human BxPC3 cells up to 100 uM after 8 days by MTT assay. The format is cell-based. Particulars: bxpc-3, 192 h.
The nature of data set [26]: AUC (infinity) in rat at 40 mg/kg, po administered QD measured after 7 days. It is filed as ADME, organism-based. Details: time infinity, dose 40 mg/kg, route oral. Particulars: plasma.
A short description of data set [27]: AUClast in rat at 40 mg/kg, po administered QD measured after 7 days. The format is ADME, organism-based. Also noted: dose 40 mg/kg, route oral. Particulars: plasma.
Data set [28] concerns Rattus norvegicus. Description: Prodrug activation in rat liver assessed as beta-D-2'-deoxy-2'-alpha-fluoro-2'-beta-C-methylguanosine monophosphate level at 40 mg/kg, po administered QD as repeated dose measured at 4 hrs post-dosing on day 8. It is filed as organism-based. Details: dose 40 mg/kg, route oral. Particulars: in vivo.
Data set [29] relates to Rattus norvegicus. Description: Prodrug conversion in rat liver assessed as beta-D-2'-deoxy-2'-alpha-fluoro-2'-beta-C-methylguanosine triphosphate level at 40 mg/kg, po administered QD as repeated dose measured at 4 hrs post-dosing on day 8. It is filed as ADME, organism-based. Details: dose 40 mg/kg, route oral. Particulars: in vivo.
For data set [30], the system named is Hepatitis C virus. Put plainly: Antiviral activity against Hepatitis C virus expressing NS5B S282T mutant by cell-based replicon assay. The format is functional, Hepacivirus hominis.
A short description of data set [31]: AUC (infinity) in rat at 40 mg/kg, po administered QD measured after 1 day. It is filed as ADME, organism-based. Details: time infinity, dose 40 mg/kg, route oral. Particulars: plasma.
In data set [32] the test system is CCRF-CEM. Put plainly: Mitochondrial toxicity against human CEM cells assessed as decrease in ribosomal DNA up to 100 uM after 14 days by RT-PCR analysis. The conditions noted are these: 336 h. It is filed as cell-based.
Data set [33] can be described thus: Cmax in rat at 40 mg/kg, po administered QD measured after 1 day. It is filed as ADME, organism-based. Details: dose 40 mg/kg, route oral. Particulars: in vivo.
Data set [34] relates to CCRF-CEM. Put plainly: Cytotoxicity against human CEM cells up to 100 uM after 8 days by MTT assay. It is filed as cell-based. The conditions noted are these: 192 h.
The test system of data set [35] is HepG2. Description: Mitochondrial toxicity against human HepG2 cells assessed as decrease in ribosomal DNA up to 100 uM after 14 days by RT-PCR analysis. The conditions noted are these: hepg2, 336 h. The format is cell-based.
Data set [36] has as its system Rattus norvegicus. Description: Prodrug activation in rat liver assessed as beta-D-2'-deoxy-2'-alpha-fluoro-2'-beta-C-methylguanosine diphosphate level at 40 mg/kg, po administered QD as repeated dose measured at 4 hrs post-dosing on day 8. Also noted: dose 40 mg/kg, route oral. The format is organism-based. The conditions noted are these: in vivo.

Molecules are shown by their SMILES.

The values that follow come from ChEMBL document CHEMBL2157997, “β-D-2'-α-F-2'-β-C-Methyl-6-O-substituted 3',5'-cyclic phosphate nucleotide prodrugs as inhibitors of hepatitis C virus replication: a structure-activity relationship study” (Bioorg Med Chem Lett, 2012).

As to `CCOc1nc(N)nc2c1ncn2[C@@H]1O[C@@H]2COP(=O)(OC(C)C)O[C@H]2[C@@]1(C)F` (stereo partly drawn) [PSI-352938], the Tmax (commonly the time from dosing to the highest level) turned out to be 24 h with Hepatocyte and 96 h in the data set with Huh-7 [7]. The half-life (as a rule, how long it takes for the measured level to halve) in data set [1] was more than 24 h; in [2] it was more than 24 h; in [6] it was more than 20 h; in data set [8], more than 24 h; in data set [10] it was more than 20 h. Further, the EC90 – broadly, the concentration needed for an effect of 90% – with Hepatitis C virus [3] was found to be 740 nM; with Hepatitis C virus [4] it was 1370 nM. In data set [5], this compound displayed a CC90 of more than 100000 nM. Also, in the data set on Hepatitis C virus [9], the Activity is more than 5 log10IU/ml.

In the case of `COc1nc(N)nc2c1ncn2[C@@H]1O[C@@H]2COP(=O)(OC3CCCC3)O[C@H]2[C@@]1(C)F` (stereo partly drawn), the Tlast with Rattus norvegicus [11] and in the data set with Rattus norvegicus [18] was 7.33 h throughout. Besides, the Tmax with Hepatocyte was found to be 8 h; in data set [15] it was 1.67 h; in [21] it was 1.67 h; in the data set on Huh-7 [7], 72 h. For the same compound, the Activity entry in the data set with CCRF-CEM [12], in the data set on HepG2 [14], in the data set on HepG2 [19], with Huh-7 [23], in the data set on BXPC-3 and with CCRF-CEM [32] was “Non-toxic” in each case. The Activity entry with CCRF-CEM [34] and in the data set with HepG2 [35] was “Non-toxic” each time. The Drug metabolism stood at 21.28 nmol/g in the data set with Rattus norvegicus [13]; 61.37 nmol/g in the data set on Rattus norvegicus [22]; 26.6 nmol/g in the data set on Rattus norvegicus [28]; 3.78 nmol/g in the data set on Rattus norvegicus [29]; 31 nmol/g with Rattus norvegicus [36]. Moreover, the half-life in data set [1] was 22 h; in data set [2], 20 h; in data set [17], 0.93 h; in data set [24], 1.8 h; in [6], 14 h; in data set [8], more than 24 h. Also, the half-life in data set [10] was 9.2 h. The EC90 in the data set with Hepatitis C virus [3] was 37 nM; with Hepatitis C virus [4], 102 nM; in the data set with Hepatitis C virus [30], 27 nM. Further, the Cmax (as a rule, the maximum level reached in the sampled fluid or tissue) was 120 ng/mL in data set [16] and 160 ng/mL in data set [33]. This compound came in with a CC90 in data set [5] of more than 100000 nM. The AUC(0-t) (commonly exposure summed from dosing to a finite time, without extrapolation to infinity) at 24 h in data set [20] is 660 ng·h/mL. Moreover, the Ratio result in the data set on Hepatitis C virus [25] was “>=10”. For the same compound, the values for the area under the curve AUC(0-inf) in data set [26] and in data set [31] were 510 ng·h/mL and 690 ng·h/mL, respectively. In addition, in [27], the exposure AUC(0-t) at 168 h was determined as 510 ng·h/mL.
